Experiments:
KRas [1] = target: T1, KRas (Homo sapiens, UniProt P01116, G12C); assay: KRas degradation in NCI-H2030 cells by Western blot, normalized to GAPDH (data of Table 14); type: cell-based; design: host or cells: NCI-H2030; conditions: for Dmax: NCI-H2030
Method in brief: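 Degradation of endogenous homozygous G12C KRas is measured by immunoblot after serum starvation and compound exposure at three final concentrations (0.3, 1 and 3 μM). VHL-recruiting compounds are incubated 24 h and all others 72 h. Percent loss is calculated from GAPDH-normalized KRas relative to vehicle.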

KRas [2] = target: T1, KRas; assay: KRas degradation in SW1573 cells by Western blot, normalized to GAPDH (data of Table 14); type: cell-based
Method in brief: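 SW1573 cells, homozygous for the KRas G12C mutation and maintained in DMEM with 10% FBS and 1% penicillin-streptomycin, were seeded in 12-well plates, allowed to attach overnight at 37° C. under 5% CO2, then serum-starved for 24 hours before compound exposure. KRas levels were measured by Western blot, normalized to GAPDH, and compared with DMSO controls to give percent degradation, DC50 and Dmax.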

Row | SMILES | Percent Degradation at Indicated Concentration (μM) (KRas [1]; H2030 cells, 0.3 μM) | Percent Degradation at Indicated Concentration (μM) (KRas [1]; H2030 cells, 1 μM) | Percent Degradation at Indicated Concentration (μM) (KRas [1]; H2030 cells, 3 μM) | Dmax (KRas [1]; H2030 cells) [%] | DC50 (KRas [2]; SW1573 cells) [µM] | Dmax (KRas [2]; SW1573 cells) [%] | Percent Degradation at Indicated Concentration (μM) (KRas [2]; SW1573 cells, 0.01 μM) | Percent Degradation at Indicated Concentration (μM) (KRas [2]; SW1573 cells, 0.03 μM) | Percent Degradation at Indicated Concentration (μM) (KRas [2]; SW1573 cells, 0.1 μM) | Percent Degradation at Indicated Concentration (μM) (KRas [2]; SW1573 cells, 0.3 μM) | Percent Degradation at Indicated Concentration (μM) (KRas [2]; SW1573 cells, 1 μM) | Percent Degradation at Indicated Concentration (μM) (KRas [2]; SW1573 cells, 3 μM) | also measured
1 | C=CC(=O)N1CCN(c2nc(NCCC(=O)N(C)CCOCCOCCOCCOCC(=O)N[C@H](C(=O)N3C[C@H](O)C[C@H]3C(=O)N[C@@H](C)c3ccc(-c4scnc4C)cc3)C(C)(C)C)nc3c(F)c(-c4cc(O)cc5ccccc45)c(Cl)cc23)CC1 (racemic) [compound 196, (2RS,4SR)-1-((RS)-21-((4-(4-acryloylpiperazin-1-yl)-6-chloro-8-fluoro-7-((SR)-3-hydroxynaphthalen-1-yl)quinazolin-2-yl)amino)-2-(tert-butyl)-18-methyl-4,19-dioxo-6,9,12,15-tetraoxa-3,18-diazahenicosanoyl)-4-hydroxy-N-((RS)-1-(4-(4-methylthiazol-5-yl)phenyl)ethyl)pyrrolidine-2-carboxamide] | – | – | – | – | – | – | – | – | – | – | – | – | DC50 (KRas [1]; H2030): ≥ 1 µM; Percent Degradation at Indicated Concentration (μM) (KRas [1]; H2030, 0.03 μM): C (Percent Degradation: C ≤ 35); Percent Degradation at Indicated Concentration (μM) (KRas [1]; H2030, 0.1 μM): C (Percent Degradation: C ≤ 35); Percent Degradation at Indicated Concentration (μM) (KRas [1]; H2030, 0.3 μM): C (Percent Degradation: C ≤ 35); Percent Degradation at Indicated Concentration (μM) (KRas [1]; H2030, 1 μM): C (Percent Degradation: C ≤ 35); Percent Degradation at Indicated Concentration (μM) (KRas [1]; H2030, 3 μM): C (Percent Degradation: C ≤ 35); Dmax (KRas [1]): ≤ 35%; DC50 (KRas [2]; SW1573): ≥ 1 µM; Dmax (KRas [2]; SW1573): ≤ 35%; Percent Degradation at Indicated Concentration (μM) (KRas [2]; SW1573, 0.03 μM): C (Percent Degradation: C ≤ 35); Percent Degradation at Indicated Concentration (μM) (KRas [2]; SW1573, 0.1 μM): C (Percent Degradation: C ≤ 35); Percent Degradation at Indicated Concentration (μM) (KRas [2]; SW1573, 0.3 μM): C (Percent Degradation: C ≤ 35); Percent Degradation at Indicated Concentration (μM) (KRas [2]; SW1573, 1 μM): C (Percent Degradation: C ≤ 35); Percent Degradation at Indicated Concentration (μM) (KRas [2]; SW1573, 3 μM): C (Percent Degradation: C ≤ 35)
2 | C=CC(=O)N1CCN(c2nc(O[C@H](C)CN3CCC(OCCOCC(=O)N[C@H](C(=O)N4C[C@H](O)C[C@H]4C(=O)N[C@@H](C)c4ccc(-c5scnc5C)cc4)C(C)(C)C)CC3)nc3c(F)c(-c4cc(O)cc5ccccc45)c(Cl)cc23)CC1 [compound 398, (2S,4R)-1-((2S)-2-(2-(2-((1-((2R)-2-((4-(4-acryloylpiperazin-1-yl)-6-chloro-8-fluoro-7-(3-hydroxynaphthalen-1-yl)quinazolin-2-yl)oxy)propyl)piperidin-4-yl)oxy)ethoxy)acetamido)-3,3-dimethylbutanoyl)-4-hydroxy-N-((S)-1-(4-(4-methylthiazol-5-yl)phenyl)ethyl)pyrrolidine-2-carboxamide] | C (Percent Degradation: C ≤ 35) | C (Percent Degradation: C ≤ 35) | C (Percent Degradation: C ≤ 35) | ≤ 35 | < 0.1 | 35 to 70 | C (Percent Degradation: C ≤ 35) | B (35 < B < 70) | B (35 < B < 70) | B (35 < B < 70) | C (Percent Degradation: C ≤ 35) | – | –
3 | C=CC(=O)N1CCN(c2nc(O[C@H](C)CN3CCC(OCCOCCOCCOCC(=O)N[C@H](C(=O)N4C[C@H](O)C[C@H]4C(=O)N[C@@H](C)c4ccc(-c5scnc5C)cc4)C(C)(C)C)CC3)nc3c(F)c(-c4cc(O)cc5ccccc45)c(Cl)cc23)CC1 [compound 400, (2S ,4R)-1-((2S)-14-((1-((2R)-2-((4-(4-acryloylpiperazin-1-yl)-6-chloro-8-fluoro-7-(3-hydroxynaphthalen-1-yl)quinazolin-2-yl)oxy)propyl)piperidin-4-yl)oxy)-2-(tert-butyl)-4-oxo-6,9,12-trioxa-3-azatetradecanoyl)-4-hydroxy-N-((S)-1-(4-(4-methylthiazo1-5-yl)phenyl)ethyl)pyrrolidine-2-carboxamide] | C (Percent Degradation: C ≤ 35) | C (Percent Degradation: C ≤ 35) | C (Percent Degradation: C ≤ 35) | ≤ 35 | ≥ 1 | ≤ 35 | C (Percent Degradation: C ≤ 35) | C (Percent Degradation: C ≤ 35) | C (Percent Degradation: C ≤ 35) | C (Percent Degradation: C ≤ 35) | C (Percent Degradation: C ≤ 35) | – | –
4 | C=CC(=O)N1CCN(c2nc(O[C@H](C)CN3CCC(OCCOCCOCCOCCOCC(=O)N[C@H](C(=O)N4C[C@H](O)C[C@H]4C(=O)N[C@@H](C)c4ccc(-c5scnc5C)cc4)C(C)(C)C)CC3)nc3c(F)c(-c4cc(O)cc5ccccc45)c(Cl)cc23)CC1 [compound 401, (2S,4R)-1-((2S)-17-((1-((2R)-2-((4-(4-acryloylpiperazin-1-yl)-6-chloro-8-fluoro-7-(3-hydroxynaphthalen-1-yl)quinazolin-2-yl)oxy)propyl)piperidin-4-yl)oxy)-2-(tert-butyl)-4-oxo-6,9,12,15-tetraoxa-3-azaheptadecanoyl)-4-hydroxy-N-((S)-1-(4-(4-methylthiazol-5-yl)phenyl)ethyl)pyrrolidine-2-carboxamide] | C (Percent Degradation: C ≤ 35) | C (Percent Degradation: C ≤ 35) | C (Percent Degradation: C ≤ 35) | ≤ 35 | ≥ 1 | ≤ 35 | C (Percent Degradation: C ≤ 35) | C (Percent Degradation: C ≤ 35) | C (Percent Degradation: C ≤ 35) | C (Percent Degradation: C ≤ 35) | C (Percent Degradation: C ≤ 35) | – | –
5 | Cc1ncsc1-c1ccc([C@H](C)NC(=O)[C@@H]2C[C@@H](O)CN2C(=O)[C@@H](NC(=O)COCCOCCOCCOCCO[C@@H]2C[C@@H](COc3nc4c(c(N5CCN(C(N)=O)[C@@H](CC#N)C5)n3)CCN(c3cccc5ccccc35)C4)N(C)C2)C(C)(C)C)cc1 [compound 537, (S)-2-(cyanomethyl)-4-(2-(((2S,4R)-4-(((S)-16-((2S,4R)-4-hydroxy-2-(((S)-1-(4-(4-methylthiazol-5-yl)phenyl)ethyl)carbamoyl)pyrrolidine-1-carbonyl)-17,17-dimethyl-14-oxo-3,6,9,12-tetraoxa-15-azaoctadecyl)oxy)-1-methylpyrrolidin-2-yl)methoxy)-7-(naphthalen-1-yl)-5,6,7,8-tetrahydropyrido[3,4-d]pyrimidin-4-yl)piperazine-1-carboxamide] | – | – | – | – | – | – | – | – | – | C (Percent Degradation: C ≤ 35) | C (Percent Degradation: C ≤ 35) | C (Percent Degradation: C ≤ 35) | –
6 | CN1C[C@H](OCCOCCOc2ccc3c(c2)C(=O)N(C2CCC(=O)NC2=O)C3=O)C[C@H]1COc1nc2c(c(N3CCN(C(N)=O)[C@@H](CC#N)C3)n1)CCN(c1cccc3ccccc13)C2 (stereo partly drawn) [compound 539, (2S)-2-(cyanomethyl)-4-(2-(((2S,4R)-4-(2-(2-((2-(2,6-dioxopiperidin-3-yl)-1,3-dioxoisoindolin-5-yl)oxy)ethoxy)ethoxy)-1-methylpyrrolidin-2-yl)methoxy)-7-(naphthalen-1-yl)-5,6,7,8-tetrahydropyrido[3,4-d]pyrimidin-4-yl)piperazine-1-carboxamide] | – | – | – | – | – | – | – | C (Percent Degradation: C ≤ 35) | C (Percent Degradation: C ≤ 35) | C (Percent Degradation: C ≤ 35) | C (Percent Degradation: C ≤ 35) | C (Percent Degradation: C ≤ 35) | –
7 | CN1C[C@H](OCCOCCNc2cccc3c2C(=O)N(C2CCC(=O)NC2=O)C3=O)C[C@H]1COc1nc2c(c(N3CCN(C(N)=O)[C@@H](CC#N)C3)n1)CCN(c1cccc3ccccc13)C2 (stereo partly drawn) [compound 543, (2S)-2-(cyanomethyl)-4-(2-(((2S,4R)-4-(2-(2-((2-(2,6-dioxopiperidin-3-yl)-1,3-dioxoisoindolin-4-yl)amino)ethoxy)ethoxy)-1-methylpyrrolidin-2-yl)methoxy)-7-(naphthalen-1-yl)-5,6,7,8-tetrahydropyrido[3,4-d]pyrimidin-4-yl)piperazine-1-carboxamide] | – | – | – | – | – | – | – | – | – | C (Percent Degradation: C ≤ 35) | C (Percent Degradation: C ≤ 35) | C (Percent Degradation: C ≤ 35) | –

Reference: patent US12552783B2, “Modulators of proteolysis and associated methods of use” (Arvinas Operations, Inc., priority 2018, dated 2026)
